Measured values published in ChEMBL document CHEMBL1201862, “PubChem BioAssay data set” (2004).
Activity calls are given as the source filed them.

Experiments:
[1] = Counterscreen for antagonists of the human trace amine associated receptor 1 (hTAAR1): Fluorescence-based cell-based high throughput dose response assay to identify nonselective Ga16 antagonists.; format: functional
[2] = target: T1, Trace amine-associated receptor 1 (Homo sapiens, UniProt Q96RJ0); assay: Fluorescence-based cell-based high throughput dose response assay to identify antagonists of the human trace amine associated receptor 1 (TAAR1).; format: functional
T1 sequence (Q96RJ0 whole entry): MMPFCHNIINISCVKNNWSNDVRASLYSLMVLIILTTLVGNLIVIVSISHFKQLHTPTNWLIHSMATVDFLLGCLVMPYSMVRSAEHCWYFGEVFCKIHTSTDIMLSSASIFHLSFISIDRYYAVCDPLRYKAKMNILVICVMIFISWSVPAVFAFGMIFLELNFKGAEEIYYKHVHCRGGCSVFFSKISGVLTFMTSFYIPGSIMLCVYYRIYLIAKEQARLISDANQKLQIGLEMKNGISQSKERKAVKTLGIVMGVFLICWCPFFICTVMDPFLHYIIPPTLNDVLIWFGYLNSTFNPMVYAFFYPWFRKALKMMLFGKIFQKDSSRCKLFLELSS

[3] = target: T1, Trace amine-associated receptor 1; assay: Counterscreen for antagonists of the human trace amine associated receptor 1 (hTAAR1): Fluorescence-based cell-based high throughput dose response assay to identify TAAR1 Agonists.; format: functional
[4] = Counterscreen for […] of the human trace amine associated receptor 1 (TAAR1): Fluorescence-based cell-based high throughput dose response assay to identify nonselective Ga16 agonists.; format: functional
[5] = Luminescence Cell-Based Dose Response HTS to Identify Activators of Luciferase Translation or Activity in H4 […] Cells. [Related pubchem assays: 1829 (Project Summary), 1814 (Primary HTS)]; format: functional
[6] = target: T2, Aryl hydrocarbon receptor (Homo sapiens, UniProt P35869); assay: Luminescence-based cell-based high throughput dose response assay for activators of the Aryl Hydrocarbon Receptor (AHR). [Related pubchem assays: 2796 (Primary screen (AHR activators in singlicate)), 2845 (Confirmation screen (AHR activators in triplicate)), 434939 (Counterscreen (PXR activators in triplicate)), 2804 (Summary (AHR activators))]; format: ADME
T2 sequence (P35869 whole entry): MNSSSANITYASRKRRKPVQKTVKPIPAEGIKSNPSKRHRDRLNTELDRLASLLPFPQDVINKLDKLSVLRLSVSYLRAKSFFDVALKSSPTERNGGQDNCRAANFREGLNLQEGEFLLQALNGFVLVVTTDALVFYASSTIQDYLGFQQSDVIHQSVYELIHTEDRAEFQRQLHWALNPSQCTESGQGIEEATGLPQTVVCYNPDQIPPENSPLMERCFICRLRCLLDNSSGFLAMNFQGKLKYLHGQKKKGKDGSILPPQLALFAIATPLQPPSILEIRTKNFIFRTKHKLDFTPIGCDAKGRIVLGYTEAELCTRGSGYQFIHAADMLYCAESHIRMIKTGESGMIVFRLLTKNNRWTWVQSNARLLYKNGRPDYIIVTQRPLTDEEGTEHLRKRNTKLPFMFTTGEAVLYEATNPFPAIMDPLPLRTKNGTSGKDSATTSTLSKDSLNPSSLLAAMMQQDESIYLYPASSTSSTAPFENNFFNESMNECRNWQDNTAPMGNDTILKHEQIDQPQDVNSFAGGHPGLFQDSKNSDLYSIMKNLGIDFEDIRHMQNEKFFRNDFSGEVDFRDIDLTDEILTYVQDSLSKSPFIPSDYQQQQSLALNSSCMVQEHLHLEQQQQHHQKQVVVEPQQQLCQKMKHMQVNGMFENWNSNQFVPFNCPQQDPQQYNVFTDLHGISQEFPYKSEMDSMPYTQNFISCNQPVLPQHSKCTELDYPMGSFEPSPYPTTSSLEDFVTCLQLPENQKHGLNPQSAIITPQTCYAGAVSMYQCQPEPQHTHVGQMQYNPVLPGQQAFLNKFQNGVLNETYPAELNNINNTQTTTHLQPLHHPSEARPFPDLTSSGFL

[7] = test system: H4; assay: Luminescence Cell-Based Dose Response HTS to Identify Activators of 5'UTR Stem-Loop Driven Prion Protein mRNA Translation in H4 Neuroglioblastoma Cells. [Related pubchem assays: 1829 (Project Summary), 1814 (Primary HTS)]; format: functional; details: Homo sapiens
[8] = test system: Vero; assay: Vero cell toxicity, dose response, cytotoxicity control, plate reader, cherry-pick samples (AID 687020); format: functional, cell-based; details: Chlorocebus sabaeus
[9] = Fluorescence-based cell-based high throughput dose response assay for inhibitors of the interaction of nucleotide-binding oligomerization domain containing 2 (NOD2) and the receptor-interacting serine-threonine kinase 2 (RIPK2).; format: functional; details: Homo sapiens
[10] = HepG2 cell cytotoxicity, dose response, cytotoxicity control, cherry-picks, set 5 (AID 1053118); format: functional, cell-based
[11] = ARNT/TACC3 interaction disruptors, potency, confirmation, biochemical, AlphaScreen, cherry-picked samples (AID 651703); format: functional, Homo sapiens;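 further: His-tagged ARNT PAS-B domain paired with GST-TACC3 E629A dimer coactivator fragment; potency of inhibitors that break up the complex and lower AlphaScreen signal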
[12] = HEK293T cell cytotoxicity, dose response, cytotoxicity control, luminescence plate reader, powder samples, set 4 (AID 651863); format: functional, cell-based; details: HEK293
[13] = target: T3, Sentrin-specific protease 1 (Homo sapiens, UniProt Q9P0U3); assay: potency of human SENP1 inhibitors, dose response, biochemical, kinetic FRET (AID 651697); format: functional; details: read-out: IC50_Mean
[14] = target: T3, Sentrin-specific protease 1; assay: Dose response confirmation of small molecule inhibitors of the catalytic domain of the SUMO protease, SENP1 in a FRET assay.; format: functional; details: read-out: IC50_Mean
[15] = target: Metabotropic glutamate receptor 5 (Rattus norvegicus, UniProt P31424); assay: Identification of a glycine sulfonamide based non-MPEP site positive allosteric potentiator (PAM) of mGlu5 (calcium_assay).; format: functional
[16] = target: T4, Beta-lactamase (Pseudomonas aeruginosa, UniProt Q79MP6); assay: IMP-1 metallo-beta-lactamase inhibitors, dose response, selectivity assay for VIM-2 inhibitor project, biochemical, epi-absorbance (AID 1920)
[17] = target: Beta-lactamase (Salmonella choleraesuis (strain SC-B67), UniProt Q5J463); assay: Epi-absorbance-based counterscreen for selective VIM-2 inhibitors: dose response biochemical high throughput screening assay to identify inhibitors of TEM-1 serine-beta-lactamase.
[18] = target: T5, Coagulation factor XII (Homo sapiens, UniProt P00748); format: functional;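 further: activated factor XIIa alpha cleaving a fluorogenic AMC peptide substrate; inhibitor potency from loss of enzyme activity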
T5 sequence (P00748 whole entry): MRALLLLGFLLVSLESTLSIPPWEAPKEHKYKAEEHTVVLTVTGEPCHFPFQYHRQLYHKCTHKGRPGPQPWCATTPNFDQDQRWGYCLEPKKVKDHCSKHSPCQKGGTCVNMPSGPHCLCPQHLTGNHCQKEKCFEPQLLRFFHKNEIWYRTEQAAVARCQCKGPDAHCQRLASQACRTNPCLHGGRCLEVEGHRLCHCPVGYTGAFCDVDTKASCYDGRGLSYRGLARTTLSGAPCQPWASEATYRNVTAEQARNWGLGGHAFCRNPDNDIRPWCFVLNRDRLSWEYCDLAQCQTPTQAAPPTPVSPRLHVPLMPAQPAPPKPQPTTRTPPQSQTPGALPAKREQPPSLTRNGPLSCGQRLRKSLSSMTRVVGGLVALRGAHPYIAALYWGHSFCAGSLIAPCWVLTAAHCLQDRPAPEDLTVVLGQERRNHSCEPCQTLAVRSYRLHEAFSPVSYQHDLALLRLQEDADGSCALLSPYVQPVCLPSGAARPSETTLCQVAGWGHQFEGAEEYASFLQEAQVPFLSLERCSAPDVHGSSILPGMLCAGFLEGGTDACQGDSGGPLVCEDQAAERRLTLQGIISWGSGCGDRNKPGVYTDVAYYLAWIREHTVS

[19] = target: T4, Beta-lactamase; assay: […] counterscreen for selective VIM-2 inhibitors: dose response biochemical high throughput screening assay to identify inhibitors of IMP-1 metallo-beta-lactamase.

T4 sequence (Q79MP6 whole entry): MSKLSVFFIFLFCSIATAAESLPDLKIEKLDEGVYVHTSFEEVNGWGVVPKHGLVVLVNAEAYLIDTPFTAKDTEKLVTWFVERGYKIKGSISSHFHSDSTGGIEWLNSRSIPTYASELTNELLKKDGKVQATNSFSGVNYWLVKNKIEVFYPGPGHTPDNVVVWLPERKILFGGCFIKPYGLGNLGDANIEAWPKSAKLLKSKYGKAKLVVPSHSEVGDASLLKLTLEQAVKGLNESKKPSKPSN
T3 sequence (Q9P0U3 whole entry, the tested form may be a part): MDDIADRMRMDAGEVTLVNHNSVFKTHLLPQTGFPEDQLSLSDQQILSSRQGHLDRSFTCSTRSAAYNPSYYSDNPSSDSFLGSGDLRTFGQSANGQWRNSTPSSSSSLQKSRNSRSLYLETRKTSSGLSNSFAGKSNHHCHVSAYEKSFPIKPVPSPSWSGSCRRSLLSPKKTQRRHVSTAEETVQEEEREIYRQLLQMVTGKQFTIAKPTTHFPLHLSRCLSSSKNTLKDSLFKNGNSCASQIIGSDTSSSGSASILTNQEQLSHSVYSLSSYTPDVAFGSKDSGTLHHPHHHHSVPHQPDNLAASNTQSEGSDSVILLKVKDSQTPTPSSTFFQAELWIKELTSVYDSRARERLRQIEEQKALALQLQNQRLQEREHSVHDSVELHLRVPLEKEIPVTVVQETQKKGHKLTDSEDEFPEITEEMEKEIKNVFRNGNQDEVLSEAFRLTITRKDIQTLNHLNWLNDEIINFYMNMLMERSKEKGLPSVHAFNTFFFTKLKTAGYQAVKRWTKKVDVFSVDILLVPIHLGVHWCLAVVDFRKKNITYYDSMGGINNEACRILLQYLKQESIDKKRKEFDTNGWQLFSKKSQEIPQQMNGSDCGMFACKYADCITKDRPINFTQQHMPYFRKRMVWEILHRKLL
Chain of Beta-lactamase (Salmonella choleraesuis (strain SC-B67), UniProt Q5J463) (Q5J463 whole entry): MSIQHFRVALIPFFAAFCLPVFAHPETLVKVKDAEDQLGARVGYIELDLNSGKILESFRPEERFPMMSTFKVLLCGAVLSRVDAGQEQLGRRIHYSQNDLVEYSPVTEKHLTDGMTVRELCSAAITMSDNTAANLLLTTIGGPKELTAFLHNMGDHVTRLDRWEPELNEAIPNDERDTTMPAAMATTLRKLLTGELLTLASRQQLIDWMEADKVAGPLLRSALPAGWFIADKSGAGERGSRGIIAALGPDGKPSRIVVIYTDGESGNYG
Chain of Metabotropic glutamate receptor 5 (P31424 whole entry): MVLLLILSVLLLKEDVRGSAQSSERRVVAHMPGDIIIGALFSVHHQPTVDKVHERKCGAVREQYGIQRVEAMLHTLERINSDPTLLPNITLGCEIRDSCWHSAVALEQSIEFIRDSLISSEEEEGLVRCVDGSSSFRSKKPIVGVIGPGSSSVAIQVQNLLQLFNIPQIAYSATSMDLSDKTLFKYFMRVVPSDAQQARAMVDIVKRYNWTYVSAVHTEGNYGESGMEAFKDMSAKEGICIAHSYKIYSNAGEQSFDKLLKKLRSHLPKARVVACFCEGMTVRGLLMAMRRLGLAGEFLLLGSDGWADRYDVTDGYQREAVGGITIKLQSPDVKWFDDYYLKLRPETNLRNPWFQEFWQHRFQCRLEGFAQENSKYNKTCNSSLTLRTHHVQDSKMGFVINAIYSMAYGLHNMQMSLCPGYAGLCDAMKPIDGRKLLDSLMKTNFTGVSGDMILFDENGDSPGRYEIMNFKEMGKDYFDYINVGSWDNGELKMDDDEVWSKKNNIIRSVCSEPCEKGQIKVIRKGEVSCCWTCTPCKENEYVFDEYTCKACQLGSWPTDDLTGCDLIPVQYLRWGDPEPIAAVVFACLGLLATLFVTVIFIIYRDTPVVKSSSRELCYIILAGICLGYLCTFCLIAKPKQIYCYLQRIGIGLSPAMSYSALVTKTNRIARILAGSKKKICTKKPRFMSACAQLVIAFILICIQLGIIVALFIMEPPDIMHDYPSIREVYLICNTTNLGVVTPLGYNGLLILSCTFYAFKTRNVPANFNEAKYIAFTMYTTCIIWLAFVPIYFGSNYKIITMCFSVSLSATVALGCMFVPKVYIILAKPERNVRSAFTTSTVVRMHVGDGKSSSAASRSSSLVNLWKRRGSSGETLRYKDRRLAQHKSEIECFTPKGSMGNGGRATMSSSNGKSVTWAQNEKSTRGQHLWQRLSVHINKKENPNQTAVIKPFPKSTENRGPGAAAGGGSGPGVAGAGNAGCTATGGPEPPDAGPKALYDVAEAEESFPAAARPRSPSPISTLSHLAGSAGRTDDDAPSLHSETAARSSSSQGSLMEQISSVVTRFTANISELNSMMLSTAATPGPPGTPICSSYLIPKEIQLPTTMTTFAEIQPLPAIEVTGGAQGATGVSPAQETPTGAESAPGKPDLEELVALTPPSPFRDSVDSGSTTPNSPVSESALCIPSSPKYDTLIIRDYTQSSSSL

Structure (SMILES): O=C(Nc1ccccc1OC(=O)c1ccc(Cl)cc1)c1ccc(Cl)cc1
- IC50 [1]: > 9.97 µM (active)
- IC50 [2]: 7.96 µM (active)
- EC50 [3]: 15.7 µM (inactive)
- EC50 [4]: > 29.9 µM (inactive)
- EC50 [5]: > 120 µM (not active)
- EC50 [6]: 4.89 µM (active)
- EC50 [7]: 13.7 µM (active)

Structure (SMILES): Cc1cccc(OC(C)C(=O)Nc2nc(-c3ccncc3)cs2)c1 (centres undefined)
- AC50 [8]: 35.8 µM (active)

Structure (SMILES): C=CCOc1ccccc1C(=O)/C=C1/C(=O)Nc2ccccc21
- IC50 [9]: 3.58 µM (active)

Structure (SMILES): COCC(=O)Nc1ccc2c(c1)C(=O)N(C)[C@H]1CC[C@@H](CC(=O)NCc3ccccc3Cl)O[C@@H]1CO2
- AC50 [10]: > 52 µM (inactive)

Structure (SMILES): COC(=O)C(CC#Cc1ccc2c(c1)[C@]1(C(=O)N2)[C@H](c2ccc(O)cc2)N2[C@H](c3ccccc3)[C@H](c3ccccc3)OC(=O)[C@H]2[C@@H]1C(=O)N1CCCCCCC1)C(=O)OC
- AC50 [11]: 104 µM (active)

Structure (SMILES): O=C(O)C1CCCCC1C(=O)N1CCc2ccccc2[C@H]1C(=O)NC12CC3CC(CC(C3)C1)C2 (some centres undefined)
- AC50 [12]: > 52 µM (inactive)

Structure (SMILES): Nc1ccc2c(c1)C(=NO)c1cc([N+](=O)[O-])ccc1-2
- IC50 [13]: 18.1 µM (active)
- IC50 [14]: 3.12 µM (active)

Structure (SMILES): CCS(=O)(=O)N1c2ccccc2CC[C@H]1C(=O)Nc1cccc(Cl)c1
- EC50 [15]: 1.74 µM

Structure (SMILES): CSc1nc(SCC(=O)O)c2c3c(sc2n1)COC(C)(C)C3
- IC50 [16]: > 59.6 µM (inactive)
- IC50 [17]: > 59.6 µM (inactive)
- IC50 [18]: > 50 µM (inactive)
- IC50 [19]: > 59.6 µM (inactive)
